Experimental data published in the NIST ThermoML archive (doi:10.1021/je300938w).
Numbers after ± are expanded uncertainties.

Assay: wn = mass fraction of the nth substance listed
Conditions: 333.15 K; 101 kPa; Liquid; Vibrating tube method; w1 = 0.05

Structure (SMILES) | mass density
CC(O)CN (stereo unspecified) [1-amino-2-propanol] + O | 984.143 ± 0.046 kg/m3
CC(O)CNCC(C)O (stereo unspecified) [N-(2-hydroxypropyl)-2-hydroxy-1-propanamine] + O | 986.277 ± 0.046 kg/m3
OCCNCCO [diethanolamine] + O | 989.2 ± 0.045 kg/m3

Same assay, conditions: 333.15 K; 101 kPa; Liquid; Vibrating tube method; w1 = 0.1

Structure (SMILES) | mass density
CC(O)CN (stereo unspecified) [1-amino-2-propanol] + O | 984.015 ± 0.054 kg/m3
CC(O)CNCC(C)O (stereo unspecified) [N-(2-hydroxypropyl)-2-hydroxy-1-propanamine] + O | 988.56 ± 0.054 kg/m3
OCCNCCO [diethanolamine] + O | 994.401 ± 0.044 kg/m3

Same assay, conditions: 333.15 K; 101 kPa; Liquid; Vibrating tube method; w1 = 0.15

Structure (SMILES) | mass density
CC(O)CN (stereo unspecified) [1-amino-2-propanol] + O | 983.779 ± 0.066 kg/m3
CC(O)CNCC(C)O (stereo unspecified) [N-(2-hydroxypropyl)-2-hydroxy-1-propanamine] + O | 991.114 ± 0.065 kg/m3
OCCNCCO [diethanolamine] + O | 999.713 ± 0.043 kg/m3

Same assay, conditions: 333.15 K; 101 kPa; Liquid; Vibrating tube method; w1 = 0.2

Structure (SMILES) | mass density
CC(O)CN (stereo unspecified) [1-amino-2-propanol] + O | 983.615 ± 0.082 kg/m3
CC(O)CNCC(C)O (stereo unspecified) [N-(2-hydroxypropyl)-2-hydroxy-1-propanamine] + O | 993.463 ± 0.08 kg/m3
OCCNCCO [diethanolamine] + O | 1005.07 ± 0.046 kg/m3

Same assay, conditions: 333.15 K; 101 kPa; Liquid; Vibrating tube method; w1 = 0.25

Structure (SMILES) | mass density
CC(O)CN (stereo unspecified) [1-amino-2-propanol] + O | 983.616 ± 0.1 kg/m3
CC(O)CNCC(C)O (stereo unspecified) [N-(2-hydroxypropyl)-2-hydroxy-1-propanamine] + O | 995.91 ± 0.098 kg/m3
OCCNCCO [diethanolamine] + O | 1010.55 ± 0.05 kg/m3

Same assay, conditions: 338.15 K; 101 kPa; Liquid; Concentric cylinders viscometry; w1 = 0.05

Structure (SMILES) | viscosity
CC(O)CN (stereo unspecified) [1-amino-2-propanol] + O | 0.5381 ± 0.0059 mPa·s
CC(O)CNCC(C)O (stereo unspecified) [N-(2-hydroxypropyl)-2-hydroxy-1-propanamine] + O | 0.5507 ± 0.0059 mPa·s
OCCNCCO [diethanolamine] + O | 0.5269 ± 0.0059 mPa·s

Same assay, conditions: 338.15 K; 101 kPa; Liquid; Concentric cylinders viscometry; w1 = 0.1

Structure (SMILES) | viscosity
CC(O)CN (stereo unspecified) [1-amino-2-propanol] + O | 0.6053 ± 0.0061 mPa·s
CC(O)CNCC(C)O (stereo unspecified) [N-(2-hydroxypropyl)-2-hydroxy-1-propanamine] + O | 0.6341 ± 0.0062 mPa·s
OCCNCCO [diethanolamine] + O | 0.5932 ± 0.006 mPa·s

Same assay, conditions: 338.15 K; 101 kPa; Liquid; Concentric cylinders viscometry; w1 = 0.15

Structure (SMILES) | viscosity
CC(O)CN (stereo unspecified) [1-amino-2-propanol] + O | 0.6919 ± 0.0064 mPa·s
CC(O)CNCC(C)O (stereo unspecified) [N-(2-hydroxypropyl)-2-hydroxy-1-propanamine] + O | 0.7693 ± 0.0066 mPa·s
OCCNCCO [diethanolamine] + O | 0.6619 ± 0.0062 mPa·s

Same assay, conditions: 338.15 K; 101 kPa; Liquid; Concentric cylinders viscometry; w1 = 0.2

Structure (SMILES) | viscosity
CC(O)CN (stereo unspecified) [1-amino-2-propanol] + O | 0.8 ± 0.0068 mPa·s
CC(O)CNCC(C)O (stereo unspecified) [N-(2-hydroxypropyl)-2-hydroxy-1-propanamine] + O | 0.8643 ± 0.007 mPa·s
OCCNCCO [diethanolamine] + O | 0.799 ± 0.0066 mPa·s

Same assay, conditions: 338.15 K; 101 kPa; Liquid; Concentric cylinders viscometry; w1 = 0.25

Structure (SMILES) | viscosity
CC(O)CN (stereo unspecified) [1-amino-2-propanol] + O | 0.9015 ± 0.0073 mPa·s
CC(O)CNCC(C)O (stereo unspecified) [N-(2-hydroxypropyl)-2-hydroxy-1-propanamine] + O | 1.032 ± 0.0078 mPa·s
OCCNCCO [diethanolamine] + O | 0.9543 ± 0.007 mPa·s

Same assay, conditions: 338.15 K; 101 kPa; Liquid; Vibrating tube method; w1 = 0.05

Structure (SMILES) | mass density
CC(O)CN (stereo unspecified) [1-amino-2-propanol] + O | 981.41 ± 0.047 kg/m3
CC(O)CNCC(C)O (stereo unspecified) [N-(2-hydroxypropyl)-2-hydroxy-1-propanamine] + O | 983.349 ± 0.047 kg/m3
OCCNCCO [diethanolamine] + O | 986.501 ± 0.046 kg/m3

Same assay, conditions: 338.15 K; 101 kPa; Liquid; Vibrating tube method; w1 = 0.1

Structure (SMILES) | mass density
CC(O)CN (stereo unspecified) [1-amino-2-propanol] + O | 981.198 ± 0.055 kg/m3
CC(O)CNCC(C)O (stereo unspecified) [N-(2-hydroxypropyl)-2-hydroxy-1-propanamine] + O | 985.762 ± 0.055 kg/m3
OCCNCCO [diethanolamine] + O | 991.668 ± 0.045 kg/m3

Same assay, conditions: 338.15 K; 101 kPa; Liquid; Vibrating tube method; w1 = 0.15

Structure (SMILES) | mass density
CC(O)CN (stereo unspecified) [1-amino-2-propanol] + O | 980.853 ± 0.067 kg/m3
CC(O)CNCC(C)O (stereo unspecified) [N-(2-hydroxypropyl)-2-hydroxy-1-propanamine] + O | 988.199 ± 0.066 kg/m3
OCCNCCO [diethanolamine] + O | 996.929 ± 0.044 kg/m3

Same assay, conditions: 338.15 K; 101 kPa; Liquid; Vibrating tube method; w1 = 0.2

Structure (SMILES) | mass density
CC(O)CN (stereo unspecified) [1-amino-2-propanol] + O | 980.549 ± 0.083 kg/m3
CC(O)CNCC(C)O (stereo unspecified) [N-(2-hydroxypropyl)-2-hydroxy-1-propanamine] + O | 990.404 ± 0.08 kg/m3
OCCNCCO [diethanolamine] + O | 1002.23 ± 0.045 kg/m3

Same assay, conditions: 338.15 K; 101 kPa; Liquid; Vibrating tube method; w1 = 0.25

Structure (SMILES) | mass density
CC(O)CN (stereo unspecified) [1-amino-2-propanol] + O | 980.398 ± 0.1 kg/m3
CC(O)CNCC(C)O (stereo unspecified) [N-(2-hydroxypropyl)-2-hydroxy-1-propanamine] + O | 992.735 ± 0.099 kg/m3
OCCNCCO [diethanolamine] + O | 1007.44 ± 0.048 kg/m3

Same assay, conditions: 343.15 K; 101 kPa; Liquid; Concentric cylinders viscometry; w1 = 0.05

Structure (SMILES) | viscosity
CC(O)CN (stereo unspecified) [1-amino-2-propanol] + O | 0.5152 ± 0.0059 mPa·s
CC(O)CNCC(C)O (stereo unspecified) [N-(2-hydroxypropyl)-2-hydroxy-1-propanamine] + O | 0.5267 ± 0.0059 mPa·s
OCCNCCO [diethanolamine] + O | 0.5002 ± 0.0058 mPa·s

Same assay, conditions: 343.15 K; 101 kPa; Liquid; Concentric cylinders viscometry; w1 = 0.1

Structure (SMILES) | viscosity
CC(O)CN (stereo unspecified) [1-amino-2-propanol] + O | 0.5701 ± 0.006 mPa·s
CC(O)CNCC(C)O (stereo unspecified) [N-(2-hydroxypropyl)-2-hydroxy-1-propanamine] + O | 0.6006 ± 0.0061 mPa·s
OCCNCCO [diethanolamine] + O | 0.5534 ± 0.0059 mPa·s

Same assay, conditions: 343.15 K; 101 kPa; Liquid; Concentric cylinders viscometry; w1 = 0.15

Structure (SMILES) | viscosity
CC(O)CN (stereo unspecified) [1-amino-2-propanol] + O | 0.6478 ± 0.0063 mPa·s
CC(O)CNCC(C)O (stereo unspecified) [N-(2-hydroxypropyl)-2-hydroxy-1-propanamine] + O | 0.725 ± 0.0065 mPa·s
OCCNCCO [diethanolamine] + O | 0.6185 ± 0.0061 mPa·s

Same assay, conditions: 343.15 K; 101 kPa; Liquid; Concentric cylinders viscometry; w1 = 0.2

Structure (SMILES) | viscosity
CC(O)CN (stereo unspecified) [1-amino-2-propanol] + O | 0.7408 ± 0.0066 mPa·s
CC(O)CNCC(C)O (stereo unspecified) [N-(2-hydroxypropyl)-2-hydroxy-1-propanamine] + O | 0.8146 ± 0.0069 mPa·s
